# Experiment: Oral bioavailability of gallium complexes in dogs (plasma gallium by ICP-MS)
# Conditions: for blood levels of gallium reached (peak blood concentration of gallium) / maximum blood concentration of gallium achieved: 2.5 mg/kg; for blood levels of gallium reached by oral controls: oral positive control (all three dogs) and oral negative control (highest value, one animal), Beagle dogs
# Protocol: Pharmacokinetics, oral bioavailability and bioequivalency of gallium-ligand complexes according to the invention were determined in dogs following a single oral gavage administration of the compounds as a suspension/solution in water in fasted male Beagle dogs at 2.5 mg/kg dog body weight or following administration of a single total dose of 30 mg in a capsule formulation (for histidine and carnosine only). The following complexes were selected for testing: gallium picolinate, gallium kojate, gallium (+)-mandalate, gallium (−)-mandalate, gallium tryptophanate, gallium acetyl piperidinate, gallium prolinate both neutral and ionic; and the capsules prepared from histidine and carnosine. Each compound was studied in groups of three fasted animals. Nine serial blood samples were collected from each animal by venipuncture of a jugular vein at the following time points post-dose: 0 (predose), 0.25, 0.5, 0.75, 1, 2, 4, 8, and 16 hours post-dose. Blood samples were collected into chilled tubes containing heparin as the anticoagulant.
# Oral bioavailability of the test gallium complex was evaluated in each of the three animals in each test group.
# [1] = single oral gavage, suspension/solution in water, fasted male Beagle dogs
structure (smiles),measurement,setting,value
O=C1[O][Ga-3]23([O]C(=O)[C@H](c4ccccc4)[OH+]2)([O]C(=O)[C@H](c2ccccc2)[OH+]3)[OH+]C1c1ccccc1 (stereo partly drawn) [gallium (+)-mandalate],blood levels of gallium reached (peak blood concentration of gallium),"male, Beagle, dog, in vivo, po","at least 1,000 ng/ml"
O=C1[O][Ga-3]23([O]C(=O)[C@@H](c4ccccc4)[OH+]2)([O]C(=O)[C@@H](c2ccccc2)[OH+]3)[OH+]C1c1ccccc1 (stereo partly drawn) [gallium (−)-mandalate],blood levels of gallium reached (peak blood concentration of gallium),"male, Beagle, dog, in vivo, po","at least 1,000 ng/ml"
CC1=[O+][Ga-3]23([O]C(=O)C4CCCCN14)([O]C(=O)C1CCCCN1C(C)=[O+]2)[O]C(=O)C1CCCCN1C(C)=[O+]3 (stereo not drawn) [gallium acetyl piperidinate complex],maximum blood concentration of gallium achieved,"male, Beagle, dog, in vivo, po",about 200 ng/ml
OCC1=CC2=[O+][Ga-3]34([O]C2=CO1)([O]C1=COC(CO)=CC1=[O+]3)[O]C1=COC(CO)=CC1=[O+]4 [gallium kojate],blood levels of gallium reached (peak blood concentration of gallium),"male, Beagle, dog, in vivo, po","at least 1,000 ng/ml"
"Cc1occc(=O)c1[O-].Cc1occc(=O)c1[O-].Cc1occc(=O)c1[O-].[Ga+3] [gallium maltolate, reference compound]",blood levels of gallium reached by oral controls,,"≥ 1,000 ng/ml"
"O=[N+]([O-])[O-].O=[N+]([O-])[O-].O=[N+]([O-])[O-].[Ga+3] [gallium nitrate, reference compound]",blood levels of gallium reached by oral controls,,≤ 700 ng/mL
O=C1[O][Ga-3]23([O]C(=O)c4cccc[n+]42)([O]C(=O)c2cccc[n+]23)[n+]2ccccc21 [gallium picolinate],blood levels of gallium reached (peak blood concentration of gallium),"male, Beagle, dog, in vivo, po","at least 1,000 ng/ml"
O=C([O-])C1CCCN1.O=C([O-])C1CCCN1.O=C([O-])C1CCCN1.[Ga+3] (stereo not drawn) [gallium prolinate neutral complex],maximum blood concentration of gallium achieved,[1],about 300 ng/ml
N[C@@H](Cc1c[nH]c2ccccc12)C(=O)[O-].N[C@@H](Cc1c[nH]c2ccccc12)C(=O)[O-].N[C@@H](Cc1c[nH]c2ccccc12)C(=O)[O-].[Ga+3] [gallium tryptophanate complex],maximum blood concentration of gallium achieved,[1],about 500 ng/ml

# Source: US20120245135A1, “Gallium Complexes, Pharmaceutical Compositions And Methods Of Use” (Genta Incorporated, priority 2011, published 2012)
